Tests used:
[1] = test system: HeLa cells; experiment: Clonogenic survival assay in naive HeLa cells; format: cell-based; conditions: Taxol for 48 hours, colonies after two weeks; absence of Dox (peptide on) vs presence of Dox (peptide off)
Procedure: HeLa cells were infected with a tet-regulatory retroviral vector (Tra) expressing the RGP8.5 peptide or GFP control. After infection, 2×10^5 cells were split into one well of 6-well plate and half of cells were incubated with Dox. The next day the cells were treated with different dosages of Taxol for 48 hours. Two weeks later, the surviving colonies were stained with Giemsa solution and photographed. The cells with Dox were kept in Dox throughout the experiment. This assay has been repeated with the RGP8.5 peptide several times.
RT-PCR for peptide rescue and MDR1 mRNA level assay. Peptide sequences were rescued by RT-PCR from Taxol-resistant cells and later cloned into a Tra vector (in which the peptide expression was under tetracycline control). Each peptide was re-tested in naive Hela cells by a clonogenic survival assay. For semi-quantitative PCR to measure MDR-1 mRNA level, RiboGreen RNA quantification kit (Molecular Probes) and […] of total RNA were used for reverse transcription. Oligonucleotides for amplification of MDR-1 mRNA were described previously (Chen, G. et al., (1997) J. Biol. Chem., 272, 5974-5982).
Clonogenic survival assay. Viruses carrying the rescued peptides were used to infect Hela cells as described above. After infection, 2×10^5 cells were seeded into single well of 6-well plate w/o Doxycycline (200 ng/ml) in the medium. […]

[2] = molecular target: T1, proteasome alpha type subunit XAPC7 (Homo sapiens, UniProt O14818); experiment: Yeast two-hybrid screening with RGP8.5 bait; format: binding; conditions: of 26 positive clones from 20 million transformants
T1 construct: expressed in transfected cells; host or cells: yeast (two-hybrid transformants)
T1 sequence (O14818 1-248): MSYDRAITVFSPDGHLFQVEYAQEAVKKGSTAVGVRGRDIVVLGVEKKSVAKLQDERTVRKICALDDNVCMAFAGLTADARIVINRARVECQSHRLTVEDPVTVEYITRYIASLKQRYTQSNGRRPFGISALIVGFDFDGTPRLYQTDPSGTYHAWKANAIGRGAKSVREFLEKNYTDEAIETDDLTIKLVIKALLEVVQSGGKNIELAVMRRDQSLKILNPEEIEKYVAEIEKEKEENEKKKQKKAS
Excerpt: (§1) Yeast two-hybrid screening. The bait used for two-hybrid screening was RGP8.5 fused to the Gal4 DNA binding domain containing a three glycine linker/spacer. A cDNA library made from a combination of multiple human tissues (brain, lymphocyte, stomach, pancreas, liver, intestine) was used for the screening. 20 million transformants were screened. 27 His^+/LacZ^+ colonies were retrieved for further analysis.

[3] = molecular target: T2, proteasome alpha type subunit Zeta (Homo sapiens, UniProt P28066); experiment: Yeast two-hybrid screening with RGP8.5 bait; format: binding; conditions: of 26 positive clones from 20 million transformants
T2 construct: expressed in transfected cells; host or cells: yeast (two-hybrid transformants)
T2 sequence (P28066 1-241): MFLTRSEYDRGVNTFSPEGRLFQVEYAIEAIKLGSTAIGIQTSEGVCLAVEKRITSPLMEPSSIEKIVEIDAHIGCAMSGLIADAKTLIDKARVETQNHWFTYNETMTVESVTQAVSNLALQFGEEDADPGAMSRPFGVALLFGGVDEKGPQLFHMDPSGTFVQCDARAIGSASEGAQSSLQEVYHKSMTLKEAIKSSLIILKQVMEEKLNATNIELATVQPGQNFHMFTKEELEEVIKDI
Excerpt: as §1

[4] = test system: Bcl-xL; experiment: Endogenous anti-apoptotic protein level; format: cell-based; conditions: cells expressing RGP8.5, presence or absence of Dox; data not shown
[5] = test system: LRP; experiment: LRP expression in Taxol-resistant clone; format: cell-based; conditions: Taxol-resistant RGP8.5 clone; data not shown
[6] = test system: cyclin B; experiment: Western blot of endogenous protein levels in RGP8.5 HeLa clone; format: cell-based; conditions: RGP8.5 expressing cells compared with GFP negative cells
Procedure: (§2) FIG. 6 depicts that inhibition of proteasome activity by RGP8.5 arrests cell cycle progression. […] To examine the effect of RGP8.5 on the endogenous protein expression, RGP8.5 expressing HeLa cells were incubated with doxycycline (200 ng/ml) for 4 days before harvesting for western analysis. Equal amount of cell lysate were loaded on each lane, separated by SDS-PAGE and immunoblotted with antiserum against GFP (Kodak), hsp70 and cyclin B1 (Santa Cruz).
(§3) Transfection, immunoprecipitation and western blot. A calcium phosphate transfection method was used for all transfections of test constructs into 293T cells. Cells were lysed in […] of TNT buffer (20 mM Tris-HCl pH7.5, 200 mM NaCl and 1% Triton-X100), supplemented with 1 mM DTT and protease cocktail (Boehringer Mannheim). The cell extracts were incubated with […] anti-flag antibody conjugated beads (Babco) at 4° C. The beads were spun down and washed with […] TNT buffer for four times. For immunoprecipitation with biotinylated RG8.5 peptide, 3 10^6 Hela cells were lysed in a buffer containing 20 mM HEPES pH7.4, 150 mM NaCl and 1% NP40 and precleaned with a Streptavidin column (Pierce, Rockford, Ill.) to reduce non-specific binding. 3 ml of biotinylated RG8.5 peptide (1 mg/ml) in DMSO was added to the cell lysate and allowed to mix overnight at 4 ° C. […]

[7] = test system: hsp70; experiment: as above; format: cell-based; conditions: irrespective of expression of the peptide
Procedure: as §2, §3

MGEFLIVKVVWGRMVCWV-LVVRRFVLVIVLENSLSSNQGPP [RGP8.5]
survival of HeLa cells in clonogenic survival assay [1]: enhanced survival | positive yeast two-hybrid clones encoding XAPC7 [2]: 25 | positive yeast two-hybrid clones encoding Zeta [3]: 1 | Bcl-xL expression level [4]: same expression level | expression of LRP [5]: undetectable | endogenous cyclin B protein level [6]: slightly elevated levels | endogenous hsp70 protein level [7]: same level

Reference: patent US6737240B1, “Methods of screening for a multi-drug resistance conferring peptide” (Rigel Pharmaceuticals, Inc., priority 1999, dated 2004)
